This assay concerns barnyard grass seeds. In words: Petri dish seed germination method: inhibition of root and stem growth of barnyard grass. The format is in vivo. As to conditions: 96 hours incubation. The protocol:
(§1) Step 2: Accurately weigh 1 mmol cis-p-menthane-1,8-di-Schiff base compounds and cis-p-menthane-1,8-di-secondary amine compounds respectively, dissolve each of them with 0.25 mL DMF, and add a drop of Tween 80 in each resulted solution. After being fully dissolved, each solution is transferred to a 100 mL volumetric flask respectively and then diluted to the mark with distilled water to obtain a solution with a concentration of 10 mmol/L as the mother liquor. The two-fold dilution method is used to prepare diluted solutions with a series of concentrations (the concentrations of DMF and Tween 80 in the diluted solutions are the same as those in the mother liquor).
(§2) Barnyard grass seeds are placed in a 28° C. incubator and are soaked in an appropriate amount of distilled water for 12 hours there. After the clean water is filtered out, the seeds are then placed in the 28° C. incubator for 24 hours to germinate. Spread 2 pieces of filter paper in each of several Petri dishes, and place 10 barnyard grass seeds with the same size in each dish. Repeat each treatment for three times The dishes are divided into two groups: test dishes and control dishes. Add into each test dish 10 mL of the sample solution with the corresponding concentration of the target compound, and add into each control dish the same amount of the mixture of water, DMF and Tween 80 as the blank control. Add 10 seeds to each of the dishes (both test dishes and control dishes), place them in an artificial climate incubator, and incubate them for 96 hours under a temperature of 28° C., an illumination of 5000 1×, a photoperiod of day:night=16:8 and a relative humidity of 70-80%. The experimental data is processed and analyzed with DPS software to calculate the inhibition rate (y) of cis-p-menthane-1,8-di-secondary amine compounds on the root growth or stem growth of barnyard grass seeds.
Wherein, y is the inhibition rate of root growth or stem growth (%), x0 is the root length or stem length of the control, and x1 is the root length or stem length of the sample.
as §1, with “Accurately” for “Step 2: Accurately”, “cis-p-menthane-1,8-bis-(4-chlorophenyl)Schiff” for “cis-p-menthane-1,8-di-Schiff”, “base” for “base compounds”, “cis-p-menthane-1,8-bis-(4-chlorobenzyl)amine” for “cis-p-menthane-1,8-di-secondary amine compounds”, “(5 mmol/L, 2.5 mmol/L, 1.25 mmol/L, 0.625 mmol/L, 0.3125 mmol/L and 0.1563 mmol/L; the” for “(the”
as §2, with “placed in a 30° C. incubator” for “placed in the 28° C. incubator”, “in each Petri dish,” for “in each of several Petri dishes,”, “each Petri dish, and place” for “several Petri dishes, and place”, “with the above corresponding concentration” for “with the corresponding concentration”, “with DPS software.” for “with DPS software to calculate the inhibition rate (y) of cis-p-menthane-1,8-di-secondary amine compounds on the root growth or stem growth of barnyard grass seeds.”

In the case of `CC(C)(N=Cc1ccc(Br)cc1)[C@H]1CC[C@@](C)(N=Cc2ccc(Br)cc2)CC1` [cis-p-menthane-1,8-bis-(4-bromobenzyl)Schiff base, reference compound], the “inhibition rate on the root growth of barnyard grass seeds” value (from here on “inhibition rate on the root growth”) by setting is: (0.3125 mmol/L) −3.2%; (0.625 mmol/L) 28.5%; (1.25 mmol/L) 46.8%; (2.5 mmol/L) 72.6%; (5 mmol/L) 69.4%. The “inhibition rate on the stem growth of barnyard grass seeds” value (“inhibition rate on the stem growth” below) worked out at 6.5% (0.3125 mmol/L); 19.6% (0.625 mmol/L); 42.3% (1.25 mmol/L); 39.3% (2.5 mmol/L); 55.9% (5 mmol/L).
As for `CC(C)(NCc1ccc(Br)cc1)[C@H]1CC[C@@](C)(NCc2ccc(Br)cc2)CC1` [cis-p-menthane-1,8-bis-(4-bromobenzyl)amine], the “inhibition rate on the root growth” value by setting is: (0.15625 mmol/L) 30.7%; (0.3125 mmol/L) 57.6%; (0.625 mmol/L) 83.4%; (1.25 mmol/L) 89.6%; (2.5 mmol/L) 97.4%; (5 mmol/L) 100.0%. Besides, the “inhibition rate on the stem growth” value was 25.2% (0.15625 mmol/L); 35.4% (0.3125 mmol/L); 51.7% (0.625 mmol/L); 58.5% (1.25 mmol/L); 88.2% (2.5 mmol/L); 92.3% (5 mmol/L).
In the case of `CC1(NCc2ccc(Cl)cc2)CCC(C(C)(C)NCc2ccc(Cl)cc2)CC1` (stereo not drawn) [cis-p-menthane-1,8-bis-(4-chlorobenzyl)amine], the “inhibition rate on the root growth” value (0.15625 mmol/L) was found to be 31.4%; the “inhibition rate on the root growth” value (0.3125 mmol/L) is listed as 57.1%; the “inhibition rate on the root growth” value (0.625 mmol/L) stood at 87.3%; the “inhibition rate on the root growth” value (1.25 mmol/L) worked out at 90.8%; the “inhibition rate on the root growth” value (2.5 mmol/L) is 91.6%; the “inhibition rate on the root growth” value (5 mmol/L) was determined as 96.7%. For the same compound, the “inhibition rate on the stem growth” value reads like this: (0.15625 mmol/L) 35.7%; (0.3125 mmol/L) 41.6%; (0.625 mmol/L) 65.8%; (1.25 mmol/L) 63.4%; (2.5 mmol/L) 68.0%; (5 mmol/L) 75.1%.
Consider `CC(C)(N=Cc1ccc(Cl)cc1)[C@H]1CC[C@@](C)(N=Cc2ccc(Cl)cc2)CC1` [cis-p-menthane-1,8-bis-(4-chlorophenyl) Schiff base, reference compound], for which the “inhibition rate on the root growth” value is, setting by setting: (0.3125 mmol/L) −5.0%; (0.625 mmol/L) 24.3%; (1.25 mmol/L) 76.7%; (2.5 mmol/L) 49.9%; (5 mmol/L) 92.4%. Further, the “inhibition rate on the stem growth” value runs as follows: (0.3125 mmol/L) 1.4%; (0.625 mmol/L) 4.6%; (1.25 mmol/L) 23.9%; (2.5 mmol/L) 22.8%; (5 mmol/L) 20.9%.
Consider `CN(C)c1ccc(C=NC(C)(C)[C@H]2CC[C@@](C)(N=Cc3ccc(N(C)C)cc3)CC2)cc1` [cis-p-menthane-1,8-bis-(4-dimethylaminobenzyl)Schiff base, reference compound], for which the “inhibition rate on the root growth” value is, setting by setting: (0.3125 mmol/L) 9.7%; (0.625 mmol/L) 45.4%; (1.25 mmol/L) 49.8%; (2.5 mmol/L) 59.3%; (5 mmol/L) 67.1%. For the same compound, the “inhibition rate on the stem growth” value is, setting by setting: (0.3125 mmol/L) −12.2%; (0.625 mmol/L) 9.5%; (1.25 mmol/L) 6.9%; (2.5 mmol/L) 1.9%; (5 mmol/L) 13.2%.
Consider `CN(C)c1ccc(CNC2(C)CCC(C(C)(C)NCc3ccc(N(C)C)cc3)CC2)cc1` (stereo not drawn) [cis-p-menthane-1,8-bis-(4-dimethylaminobenzyl)amine], for which the “inhibition rate on the root growth” value reads like this: (0.15625 mmol/L) 14.4%; (0.3125 mmol/L) 31.0%; (0.625 mmol/L) 21.0%; (1.25 mmol/L) 48.1%; (2.5 mmol/L) 70.3%; (5 mmol/L) 89.3%. The “inhibition rate on the stem growth” value stood at 19.1% (0.15625 mmol/L); 19.6% (0.3125 mmol/L); 24.9% (0.625 mmol/L); 22.3% (1.25 mmol/L); 34.3% (2.5 mmol/L); 56.6% (5 mmol/L).
Regarding `CC1(N=Cc2ccc(F)cc2)CCC(C(C)(C)N=Cc2ccc(F)cc2)CC1` (stereo not drawn) [cis-p-menthane-1,8-bis-(4-fluorobenzyl)Schiff base, reference compound], the “inhibition rate on the root growth” value is reported as 15.7% (0.3125 mmol/L); 72.8% (0.625 mmol/L); 85.7% (1.25 mmol/L); 82.9% (2.5 mmol/L); 79.7% (5 mmol/L). For the same compound, the “inhibition rate on the stem growth” value is −13.7% (0.3125 mmol/L); 2.7% (0.625 mmol/L); 23.9% (1.25 mmol/L); 20.1% (2.5 mmol/L); 32.3% (5 mmol/L).
For `CC1(NCc2ccc(F)cc2)CCC(C(C)(C)NCc2ccc(F)cc2)CC1` (stereo not drawn) [cis-p-menthane-1,8-bis-(4-fluorobenzyl)amine], the “inhibition rate on the root growth” value (0.15625 mmol/L) is listed as 38.2%; the “inhibition rate on the root growth” value (0.3125 mmol/L) is 48.3%; the “inhibition rate on the root growth” value (0.625 mmol/L) stood at 78.6%; the “inhibition rate on the root growth” value (1.25 mmol/L) turned out to be 78.6%; the “inhibition rate on the root growth” value (2.5 mmol/L) is 98.6%; the “inhibition rate on the root growth” value (5 mmol/L) was found to be 100.0%. Moreover, the “inhibition rate on the stem growth” value by setting is: (0.15625 mmol/L) 7.2%; (0.3125 mmol/L) 10.5%; (0.625 mmol/L) 58.3%; (1.25 mmol/L) 75.1%; (2.5 mmol/L) 85.9%; (5 mmol/L) 100.0%.

For the origin of these results see patent publication US20210161131A1, “cis-p-Menthane-1,8-Di-secondary Amine Compounds as well as Their Preparation Methods and Application in Weed Control” (RESEARCH INSTITUTE OF FORESTRY NEW TECHNOLOGY, CHINESE …, priority 2019, published 2021).
